Where a name gives a salt, the structure may show the parent alone.
Legend:
[1] = Stability on exposure to light or air; type: physicochemical
[2] = tested on: Lamin A/C depleted (siLMNA) U2OS cells; test: Nuclear shape rescue (DAPI staining, nuclear circularity) in Lamin A/C depleted cells; type: cell-based, human; details: for increase in potency compared to Compound 2 (dose-dependent nuclear shape rescue): DAPI staining; for nuclear shape / nuclear circularity rescue: 16 hours, Compound 2 and 3 50 μM, MB-3 5 μM, FTI 5 μM, nocodazole 200 ng/ml, colchicine 1 μg/ml, latrunculin A 1 μM
Description: U2OS and SaOS-2 osteosarcoma cells, HeLa cervical cancer cells, A431 melanoma cells, NCI-SNU5 gastric cancer cells, MRC-5 lung fibroblast cells and Werner syndrome patient-derived SV40 fibroblast cells were grown in Dulbecco's modified Eagle medium (DMEM, Sigma-Aldrich) supplemented with 10% fetal bovine serum (BioSera), 2 mM L-glutamine, 100 U per ml penicillin, 100 μg ml^−1 streptomycin. Normal skin primary fibroblasts GM03440 and Hutchinson Gilford Progeria Syndrome (HGPS) skin primary fibroblasts AG11498 and AG06297 were purchased from Coriell Cell Repositories and used between passage number 9-12 and 20-23 respectively. Cells were grown in DMEM supplemented as above. RPE-1 retinal pigment epithelial cells were grown in DMEM and Ham F12 mix medium supplemented as above and buffered with sodium bicarbonate. HMV-II melanoma cell line, 22RV1 prostate carcinoma cells, NCI-H82 and NCI-H69 lung carcinoma cells, and NCI-N87 gastric cancer cell lines were grown in RPMI-1640 medium (Sigma-Aldrich) supplemented as above. Stably transfected U2OS cells were maintained in standard medium containing 1 mg ml^−1 G418 (Invitrogen). The siRNA duplexes were obtained from Life Sciences: Lamin A/C stealth RNAi: […] (SEQ ID NO: 1) and […] (SEQ ID NO: 2), NAT10 stealth RNAi: […] (SEQ ID NO: 3), and as control siRNA, stealth RNAi negative control duplexes were used. Plasmid DNA and siRNA transfections were carried out using Lipofectamine 2000 and Lipofectamine RNAiMax (Life Sciences) respectively, following the manufacturer's instructions. Cells were analysed 48 to 72 hours after transfection.
The following KAT and KDAC inhibitors were used in the nuclear shape rescue screen, incubating cells with the molecules for 16 hours: trichostatin A (1 μM), sodium butyrate (5 mM), tubacin (10 μM), SAHA (5 μM), curcumin (10 μM), garcinol (50 μM), anacardic acid (1 μM), MB-3 (5 μM), 4-(4-chlorophenyl)-2-(2-cyclopentylidenehydrazinyl)thiazole (Compound 2) (50 μM), 4-(4-chlorophenyl)-2-(2-cyclopentylidene-1-(prop-2-yn-1-yl)hydrazinyl)thiazole (Compound 3) (50 μM) and cyclopentylidene-[4-(4-cyanophenyl)thiazol-2-yl)hydrazine (Compound 1) (Remodelin) (10 to 50 μM). For HGPS cellular fitness assays, Remodelin was incubated at 1 μM for 1 to 10 days, renewing the medium every 3 days. For long-term senescence assay, cells were kept and passaged in medium containing 1 μM Remodelin or DMSO only for 12 population doublings. Senescence was assessed after 8 days of Remodelin treatment when cells were at Population Doubling 12, and then after several weeks of Remodelin treatment, when cells reached Population Doubling 24 using the Senescence β-Galactosidase Staining Kit #9860 from Cell Signaling. Nocodazole, colchicine and latrunculin A (Sigma-Aldrich) were used at 200 ng/ml, 1 μg/ml and 1 μM respectively. Aphidicolin (Sigma-Aldrich) was used at 5 μg/ml for 16 h. Farnesyltransferase inhibitor FTI-277 was purchased from Tocris Bioscience and used at 5 μM. ATMi (KU55933) and ATRi (ATR-45) were obtained from Tocris Bioscience and from the Ohio State University respectively and used at 10 μM and 500 nM. Pifithrin alpha (Sigma-Aldrich) was used at 10 μM.
CellProfiler software was used to quantify nuclear circularity and nuclear area from DAPI staining pictures, using the “object size shape” measurement. The AreaShape measurement allowed the calculation of the Form Factor index ([…]) corresponding to circularity (a Form Factor of 1 reflecting a perfect circle), as well as the calculation of nuclear Area.
Lamin A/C was depleted by siRNA in U2OS cells (siLMNA) to induce misshapen nuclei. Cells were then treated for 16 h with various analogues of Compound 2 and nuclear shape rescue was analysed by DAPI staining. The results are shown in FIG. 18 and FIG. 19 which display the structures of the tested molecules and their ability to rescue nuclear shape.

[3] = A431 proliferation assay (IncuCyte ZOOM); type: cell-based, human
Description: A431 cells expressing a low level of Lamin A protein (see FIG. 2) were plated at low density and treated with the indicated concentration of Compound 2. Cell growth was monitored automatically over time using an IncuCyte ZOOM®.

[4] = tested on: cancer cell lines with low or high Lamin A/C expression; test: Population doubling time of cancer cell lines; type: cell-based, human
Description: FIG. 15: Compound 2 inhibits the proliferation, migration and invasion of cancer cells with low Lamin A/C expression. […] C) Quantification of transwell migration assays and matrigel invasion assays from the indicated low expressing cancer cell lines after treatment with 50 μM of compound 2.

Compound	stability [1]	increase in potency compared to Compound 2 (dose-dependent nuclear shape rescue) [2]	increase in potency compared to Compound 2 (dose-dependent nuclear shape rescue) ([2]; listed as Remodelin)	reduction of A431 proliferation ([3]; 10 μM)	proliferation of cells expressing high levels of lamin A/C ([4]; up to 50 μM)	nuclear shape / nuclear circularity rescue [2]	A431 cell growth ([3]; indicated concentrations, growth monitored over time)	population doubling time, sensitivity by Lamin A level ([4]; 50 μM for 1 week)
N#Cc1ccc(-c2csc(NN=C3CCCC3)n2)cc1 [Compound 1, 4-(4-Cyanophenyl)-2-(2-cyclopentylidenehydrazinyl)thiazole]	most potent and stable analogue of the series	five-fold	~5 fold	about 50%	not affected by up to 50 μM Remodelin			
Clc1ccc(-c2csc(NN=C3CCCC3)n2)cc1 [Compound 2, 4-(4-Chlorophenyl)-2-(2-cyclopentylidenehydrazinyl)thiazole Hydrochloride Salt]	rapidly degraded upon exposure to light or air					completely restoring nuclear shape and circularity	inhibited in a dose-dependent manner	cells expressing low levels of Lamin A are more sensitive to the molecule
C#CCN(N=C1CCCC1)c1nc(-c2ccc(Cl)cc2)cs1 [Compound 3, 4-(4-Chlorophenyl)-2-(2-cyclopentylidene-1-(prop-2-yn-1-yl)hydrazinyl)thiazole]						equivalent cellular activity as Compound 2		
